Entries after “also recorded” stand apart in the source; their conditions may differ.
Assays:
[1] = tested on: SF-268; assay: NCI60 cell line response to SA, SF-268; assay type: cell-based, human; settings: SF-268, doubling time 33.1 hours
[2] = tested on: MPNST cell lines derived from the NPcis mouse; assay: Cell morphology / actin, MPNST cell lines; assay type: cell-based
Protocol: Cell Morphology Assays and Confocal Microscopy: To assay cytoskeleton morphology, KR158 cells, mouse primary astrocytes, KR158 clones expressing the NF1-GRD constructs, K14553 cells, and A549 were seeded to cover slips and allowed to reattach overnight. Cells were treated for 18 hours with either the indicated concentrations of SA, or the vehicle control DMSO. The cover slips were fixed in 3.7% paraformaldehyde, permeablized in 0.1% Triton-X100, and stained with Alexa Fluor 488-phalloidin (Invitrogen, Carlsbad, Calif., USA) to detect actin and cells were mounted in Prolong Antifade containing DAPI (Invitrogen) to stain nuclei. The cells were imaged on a LSM510 confocal microscope (Carl Zeiss Inc., Jena, Germany). For phospho-myosin light chain 2 (MLC) detection, cells were seeded to coverslips as described above. Cells were serum starved in 0.5% FBS and SA or DMSO vehicle control for 18 hours, and then pulsed with 10 ng/mL EGF (Invitrogen) for 5 min. […] Actin structures were monitored continuously over a 16 hr period using confocal microscopy equipped with a growth chamber (37° C., humidified atmosphere and 5% CO2). […]

[3] = tested on: MPNST K16561 cells; assay: XTT cell proliferation assay, K16561; assay type: cell-based, mouse
Protocol: (§1) Establishment of NPcis MPNST cell lines: Mice were euthanized by CO2 asphyxiation and tumors were dissected. The tumor volume was measured. The tumor was then cut in half, and ½ fixed in 4% PFA. The other half was rinsed, then cut into 24 pieces of approximately equal size. Each piece was diced with a razor blade and placed in 1 well of a 24 well plate, along with 625 μL of Triple Express (Gibco, Grand Island, N.Y., USA) and 5 μL of recombinant DNAse (Roche, Indianapolis, Ind., USA). Tumors were triturated, then incubated at 37° C. in a 5% CO2 incubator for 2-5 hours, with an additional trituration halfway through incubation time. At the end of the incubation, tumor pieces were triturated again, and suspended cells were transferred to 1.5 mL eppendorf tubes. […] Both plates were monitored for cell growth, grown up to 10 cm plates, and frozen down in 10% DMSO. […]
(§2) XTT Cell Proliferation Assay: Cells were seeded into 96-well plates at a density of 2,000 cells/well and allowed to reattach overnight. Cells were treated with SA, synthetic analogs, camptothecin (NCI Chemotherapeutics Repository, Md., USA), or DMSO control at the indicated concentrations continuously for 48 hours followed by assay in the 96-well plate for relative viable cell number using the dye […] (XTT) and a Wallac-Victor 2 plate reader (Perkin-Elmer, Waltham, Mass., USA). […]

[4] = tested on: MPNST K14553 cells; assay: XTT cell proliferation assay, K14553; assay type: cell-based, mouse
Protocol: as §1, §2

For CC(C)=CCC/C(C)=C/Cc1c(O)cc(/C=C/c2cc(O)c3c(c2)C[C@@H]2C(C)(C)[C@H](O)[C@H](O)C[C@@]2(C)O3)cc1O [SA, Schweinfurthin A], the logGI50 [1] was −5.62, the actin cytoskeleton [2] was “loss of stress fibers” and the “inhibition of proliferation (percent viability versus control)” value [3] was “dose dependent inhibition of proliferation; also recorded: sensitive”. For the same compound, the “inhibition of proliferation (percent viability versus control)” value [4] was “dose dependent inhibition of proliferation; also recorded: sensitive”.

Source: US8686016B2, “Schweinfurthins and uses thereof” (The United States of America, as represented by the …, priority 2009, dated 2014)
